Measured values taken from publication PMC9230803, “Synthesis and Antiviral Properties against SARS-CoV-2 of Epoxybenzooxocino[4,3-b]Pyridine Derivatives” (Molecules, 2022).
Converted amounts (≈) assume the structure as drawn. Read-outs that look alike come from different tables or passages of the source.

Legend:
SARS-CoV-2 virus = assay: microbe, parasite or virus in culture; format: cell-based; details: for inhibition of virus-induced CPE development / virus replication (in words): any concentration up to the tested limit of 200 µg/mL; for selectivity index (SI): IC50/EC50 in Vero E6 cells
Vero E6 cells = assay: cells; format: cell-based; details: Chlorocebus sabaeus, Vero C1008, upper limit of concentrations tested 200 µg/mL, read-out: IC50 (the source's name)
[1] = Severe acute respiratory syndrome coronavirus 2, Vero C1008, SARS-CoV-2 in Vero E6 cells, CPE-positive wells reduced by half, upper limit tested 200 µg/mL, read-out: EC50
[2] = cytotoxicity, uninfected Vero E6 cells, MTT
[3] = SARS-CoV-2 in Vero E6 cells, CPE-positive wells reduced by half, upper limit tested 200 µg/mL

Compound | EC50 (SARS-CoV-2 virus; [1]) [µg/mL] | inhibition of virus-induced CPE development / virus replication (in words) (SARS-CoV-2 virus) | CC50 (Vero E6 cells; [2]) [µg/mL] | selectivity index (SI) (SARS-CoV-2 virus) | EC50 (SARS-CoV-2 virus; [3]) [µg/mL] | wells presenting the CPE (SARS-CoV-2 virus; 6a at 0.82 μg/mL, ten wells per concentration) | wells showing the CPE (SARS-CoV-2 virus; 6a at 2.47 μg/mL, ten wells per concentration) | EC50 (SARS-CoV-2 virus; Severe acute respiratory syndrome coronavirus 2, Vero C1008) [µg/mL] | CC50 (Vero E6 cells; […]) [µg/mL]
C/C(=N\NC(=O)c1ccccc1O)c1cc2c(nc1C)CC1OC2(C)Oc2ccccc21 (stereo not shown) [Compound 4b, (E)-N′-(1-(2,5-dimethyl-11,12-dihydro-5H-5,11-epoxybenzo[7,8]oxocino[4,3-b]pyridin-3-yl)ethylidene)-2-hydroxybenzohydrazide] | > 200 | did not affect the development of CPE | > 200 |  |  |  |  |  | 
CC(=O)c1cc2c(nc1C)CC1OC2(C)Oc2ccccc21 (stereo not shown) [Compound 3, 1-(2,5-dimethyl-11,12-dihydro-5H-5,11-epoxybenzo[7,8]oxocino[4,3-b]pyridin-3-yl)ethan-1-one] | > 200 | did not affect the development of CPE | 131 (≈ 444 µM) |  |  |  |  |  | 
CCN(CC)CCOc1ccc2c(c1)C(=O)c1cc(OCCN(CC)CC)ccc1-2.Cl [Tilorone, 2,7-bis[2-(diethylamino)ethoxy]fluoren-9-one hydrochloride, reference compound] | 4.29 |  |  | 1.8 | 4.3 |  |  |  | 
Cc1nc2c(cc1C(=O)/C=C1\Nc3ccc([N+](=O)[O-])cc3OC1=O)C1(C)Oc3ccccc3C(C2)O1 (stereo not shown) [Compound 6c, (Z)-3-(2-(2,5-dimethyl-11,12-dihydro-5H-5,11-epoxybenzo[7,8]oxocino[4,3-b]pyridin-3-yl)-2-oxoethylidene)-7-nitro-3,4-dihydro-2H-benzo[b][1,4]oxazin-2-one] | > 200 | did not affect the development of CPE | > 200 |  |  |  |  |  | 
CC(=NNC(=O)c1ccncc1)c1cc2c(nc1C)CC1OC2(C)Oc2ccccc21 (stereo not shown) [Compound 4a, (E,Z)-N′-(1-(2,5-dimethyl-11,12-dihydro-5H-5,11-epoxybenzo[7,8]oxocino[4,3-b]pyridin-3-yl)ethylidene)isonicotinohydrazide] | > 200 | did not affect the development of CPE | > 200 |  |  |  |  |  | 
Cc1nc2c(cc1C(=O)/C=C1\Nc3ccccc3NC1=O)C1(C)Oc3ccccc3C(C2)O1 (stereo not shown) [Compound 6a, (Z)-3-(2-(2,5-dimethyl-11,12-dihydro-5H-5,11-epoxybenzo[7,8]oxocino[4,3-b]pyridin-3-yl)-2-oxoethylidene)-3,4-dihydroquinoxalin-2(1H)-one] | 2.23 (≈ 5.07 µM) | inhibition of CPE development was found | 6 (≈ 13.7 µM) | 2.7 | 2.2 (≈ 5.01 µM) | Eight of ten | one in ten |  | 
Cc1nc2c(cc1C(=O)/C=C1\Nc3ccccc3OC1=O)C1(C)Oc3ccccc3C(C2)O1 (stereo not shown) [Compound 6b, (Z)-3-(2-(2,5-dimethyl-11,12-dihydro-5H-5,11-epoxybenzo[7,8]oxocino[4,3-b]pyridin-3-yl)-2-oxoethylidene)-3,4-dihydro-2H-benzo[b][1,4]oxazin-2-one] | > 200 | did not affect the development of CPE | > 200 |  |  |  |  |  | 
Cc1nc2c(cc1C(=O)/C=C(\O)C(=O)O)C1(C)Oc3ccccc3C(C2)O1 (stereo not shown) [Compound 5, (Z)-4-(2,5-dimethyl-11,12-dihydro-5H-5,11-epoxybenzo[7,8]oxocino[4,3-b]pyridin-3-yl)-2-hydroxy-4-oxobut-2-enoic acid] |  | did not affect the development of CPE |  |  |  |  |  | > 200 | > 200
